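Step 1: Grow cells in 96-well plates. Step 2: Expose to compound for 48 hours at 5 concentrations. Step 3: Interpolate endpoints linearly; if unreached, use highest concentration. GI50 = concentration required for 50% inhibition of growth. TGI: total growth inhibition.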
Key:
Assay in all cases: inhibition of tumour cell growth, NCI panel, 48 h
UACC-257 melanoma = test system: UACC-257 melanoma
MDA-MB-231 breast = test system: MDA-MB-231 breast
RXF 393 renal = test system: RXF 393 renal
NCI/ADR-RES ovarian = test system: NCI/ADR-RES ovarian
TK-10 renal = test system: TK-10 renal
HOP-62 NSCLC = test system: HOP-62 NSCLC
MDA-MB-435 = test system: MDA-MB-435
SF-539 CNS = test system: SF-539 CNS
UO-31 renal = test system: UO-31 renal
LOX IMVI melanoma = test system: LOX IMVI melanoma

Row | Compound | TGI (UACC-257 melanoma) [µM] | TGI (MDA-MB-231 breast) [µM] | TGI (RXF 393 renal) [µM] | TGI (NCI/ADR-RES ovarian) [µM] | TGI (TK-10 renal) [µM] | TGI (HOP-62 NSCLC) [µM] | TGI (MDA-MB-435) [µM] | TGI (SF-539 CNS) [µM] | TGI (UO-31 renal) [µM] | TGI (LOX IMVI melanoma) [µM] | GI50 (UACC-257 melanoma) [nM] | GI50 (MDA-MB-231 breast) [µM] | GI50 (NCI/ADR-RES ovarian) [nM] | GI50 (TK-10 renal) [nM] | GI50 (HOP-62 NSCLC) [nM] | GI50 (MDA-MB-435) [nM] | GI50 (SF-539 CNS) [nM] | GI50 (UO-31 renal) [nM] | GI50 (LOX IMVI melanoma) [nM]
1 | NS(=O)(=O)c1nnc(NC(=O)Nc2ccc(Cl)c(Cl)c2)s1 | 42 | 67.1 | 35.3 | 55.7 | 43.9 | 39.7 | 50 | 34.1 | 85.3 | 36.4 |  |  |  |  |  |  |  |  | 
2 | COc1ccc(/C=c2\sc3n(c2=O)CCN=3)cc1 | > 100 |  | > 100 |  | > 100 | > 100 |  | > 100 | > 100 | > 100 |  |  |  |  |  |  |  |  | 
3 | CC1=C(Cl)C=CP(=O)(Oc2ccccc2)C1 (stereo not drawn) | > 100 |  |  |  |  | > 100 |  |  | > 100 | > 100 |  |  |  |  |  |  |  |  | 
4 | COC(=O)[C@@H](O)[C@](O)(CCC(C)C)C(=O)O[C@@H]1C(OC)=C[C@]23CCCN2CCc2cc4c(cc2[C@H]13)OCO4 | 6.06 |  | 5.41 | 71.4 |  | 4.75 |  | 3.16 | 8.42 | 5.21 |  |  |  |  |  |  |  |  | 
5 | Oc1ccc(-c2nc3ccc(Br)cc3s2)cc1 | 51.1 | 45 | > 100 | 67.3 | 35.9 |  | 53.4 | 35.8 | 44.4 | 30.1 |  |  |  |  |  |  |  |  | 
6 | COC(=O)c1c(C)nc2c1cc(O)c1[nH]c(C)c(C)nc12 | > 100 |  | > 100 | > 100 | > 100 | 71.7 | > 100 | > 100 | > 100 | > 100 |  |  |  |  |  |  |  |  | 
7 | O=C(N/N=C/c1ccc(Cl)cc1)c1c(Cl)c(Cl)c(Cl)c(Cl)c1-c1nc2ccccc2[nH]1 |  |  | > 100 | > 100 |  | > 100 | > 100 | > 100 | > 100 | > 100 |  |  |  |  |  |  |  |  | 
8 | O=C1CCCCC1CN1CCCCC1 (stereo not drawn) |  | > 100 | > 100 | > 100 | > 100 | > 100 | > 100 | > 100 | > 100 | > 100 |  |  |  |  |  |  |  |  | 
9 | CCN(CC)C(=S)N/N=C/c1cc([N+](=O)[O-])ccc1O | 32.2 | 30.4 | 51.3 | 13.9 | 37.1 | > 100 | 76.9 | 28.3 | > 100 | 18.5 |  |  |  |  |  |  |  |  | 
10 | CCCCCC1=CC(=O)C1(Cl)Cl | 33.3 | 31 | 35.3 | 86.6 | 20.8 | 48.8 | 33 | 38.9 | 38.2 | 21.2 |  |  |  |  |  |  |  |  | 
11 | Oc1ccccc1CNCc1nc2ccccc2[nH]1 | > 100 | > 100 | > 100 | 61.5 | > 100 | > 100 | > 100 | > 100 | 49.1 | > 100 |  |  |  |  |  |  |  |  | 
12 | Cc1ccc(N(Cc2ccccc2)Cc2ccccc2)cc1 | > 100 | > 100 | > 100 | > 100 | > 100 | > 100 | > 100 | > 100 | > 100 | > 100 |  |  |  |  |  |  |  |  | 
13 | Oc1ccc(Cc2cc(Cc3ccc(O)cc3)cc(Cc3ccc(O)cc3)c2)cc1 | > 50 | > 50 |  | > 50 | > 50 | > 50 | > 50 | > 50 | > 50 | > 50 |  |  |  |  |  |  |  |  | 
14 | N[C@@H](CCC(=O)NCP(=O)(O)O)C(=O)O | > 100 | > 100 |  | > 100 | > 100 | > 100 | > 100 | > 100 | > 100 |  |  |  |  |  |  |  |  |  | 
15 | CC(=O)Nn1c(=S)[nH]c2ccccc21 | > 100 | > 100 | > 100 | > 100 | > 100 | > 100 | > 100 |  | > 100 | > 100 |  |  |  |  |  |  |  |  | 
16 | O=C(c1ccccn1)C1(N2CCCCC2)CCCCC1 | > 100 | > 100 |  | > 100 | > 100 | > 100 | > 100 | > 100 | > 100 | > 100 |  |  |  |  |  |  |  |  | 
17 | CC1(C(=O)O)CCC2(C)CCC3(C)C(=CC(=O)C4C5(C)CCC(O)C(C)(C)C5CCC43C)C2C1 (stereo not drawn) | > 100 |  | 83 | > 100 | > 100 |  | > 100 | 32.5 | 57.1 | 41.8 |  |  |  |  |  |  |  |  | 
18 | COC(=O)C1CC(C=[N+](C)C)=C(SC)N1C(=O)OCc1ccccc1 (stereo not drawn) | > 100 | > 100 | > 100 | > 100 | > 100 | > 100 | > 100 |  | > 100 |  |  |  |  |  |  |  |  |  | 
19 | N#CC(Cc1ccccc1)N(CCC1=CCCCC1)C(c1ccccc1)c1ccccc1 (stereo not drawn) | > 100 | > 100 | > 100 | > 100 | > 100 | > 100 | > 100 |  | > 100 |  |  |  |  |  |  |  |  |  | 
20 | COc1ccc(CN2C(=O)/C(=C\c3cc(OC)c(OC)c(OC)c3)c3ccccc32)cc1 | 6.67 | > 100 |  | > 100 | 4.33 | 4.98 | 5.08 | 4.33 | 2.91 | 3.3 | 2150 | 3.34 | 2970 | 1140 | 2420 | 2090 | 2170 | 1180 | 1760
21 | O=C(Cc1ccc(O)c(O)c1)NCc1c[nH]c2ccccc12 | > 100 |  | > 100 | > 100 | 69.5 | > 100 |  | > 100 | > 100 |  |  |  |  |  |  |  |  |  | 
22 | CC(=O)/C=C/C1=C(C)CCCC1(C)CC(C)C (stereo not drawn) | 84 | > 100 | 28.4 |  | > 100 | > 100 | > 100 | > 100 | > 100 | 39.9 |  |  |  |  |  |  |  |  | 
23 | CC(=O)N1C(C(=O)NC2CCCCC2)CSC1c1ccccc1 (stereo not drawn) | > 100 |  |  | > 100 | > 100 | > 100 | > 100 | > 100 | > 100 | > 100 |  |  |  |  |  |  |  |  | 
